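48-hour exposure; five concentrations; linearly interpolated endpoints. Here, GI50 denotes the concentration required for 50% inhibition of growth. TGI marks complete inhibition of growth.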
Experiments:
Experiment in all cases: NCI anticancer screen, dose series, 48 h
OVCAR-8 ovarian = test system: OVCAR-8 ovarian
SF-539 CNS = test system: SF-539 CNS
LOX IMVI melanoma = test system: LOX IMVI melanoma
786-0 renal = test system: 786-0 renal
COLO 205 colon = test system: COLO 205 colon
MDA-MB-435 = test system: MDA-MB-435
HOP-92 NSCLC = test system: HOP-92 NSCLC
NCI/ADR-RES ovarian = test system: NCI/ADR-RES ovarian
HCT-15 colon = test system: HCT-15 colon
HL-60(TB) leukemia = test system: HL-60(TB) leukemia
NCI-H23 lung = test system: NCI-H23 lung
SNB-75 CNS = test system: SNB-75 CNS
UACC-62 melanoma = test system: UACC-62 melanoma
SN12C renal = test system: SN12C renal
MCF7 breast = test system: MCF7 breast
A498 renal = test system: A498 renal
OVCAR-3 ovarian = test system: OVCAR-3 ovarian
SK-MEL-2 melanoma = test system: SK-MEL-2 melanoma
NCI-H522 lung = test system: NCI-H522 lung
M14 melanoma = test system: M14 melanoma
PC-3 prostate = test system: PC-3 prostate
OVCAR-5 ovarian = test system: OVCAR-5 ovarian
BT-549 breast = test system: BT-549 breast
CAKI-1 renal = test system: CAKI-1 renal
NCI-H460 lung = test system: NCI-H460 lung
HCT-116 colon = test system: HCT-116 colon
HOP-62 NSCLC = test system: HOP-62 NSCLC
A549 NSCLC = test system: A549 NSCLC
MOLT-4 leukemia = test system: MOLT-4 leukemia
RPMI-8226 leukemia = test system: RPMI-8226 leukemia
K-562 leukemia = test system: K-562 leukemia
HT29 colon = test system: HT29 colon
SR leukemia = test system: SR leukemia
CCRF-CEM leukemia = test system: CCRF-CEM leukemia
SNB-19 CNS = test system: SNB-19 CNS
EKVX NSCLC = test system: EKVX NSCLC
DU-145 prostate = test system: DU-145 prostate
SF-295 CNS = test system: SF-295 CNS
SF-268 CNS = test system: SF-268 CNS
HCC-2998 colon = test system: HCC-2998 colon
UO-31 renal = test system: UO-31 renal
IGROV1 ovarian = test system: IGROV1 ovarian
ACHN renal = test system: ACHN renal
UACC-257 melanoma = test system: UACC-257 melanoma
TK-10 renal = test system: TK-10 renal
SK-MEL-28 melanoma = test system: SK-MEL-28 melanoma
RXF 393 renal = test system: RXF 393 renal
SW-620 colon = test system: SW-620 colon
OVCAR-4 ovarian = test system: OVCAR-4 ovarian
SK-OV-3 ovarian = test system: SK-OV-3 ovarian
KM12 colon = test system: KM12 colon
HS 578T breast = test system: HS 578T breast
U251 CNS = test system: U251 CNS
NCI-H226 lung = test system: NCI-H226 lung
T-47D breast = test system: T-47D breast
MALME-3M melanoma = test system: MALME-3M melanoma
MDA-MB-231 breast = test system: MDA-MB-231 breast

Structure (SMILES): O=C(c1ccccc1)N(C(=S)NCCc1ccc(Cl)cc1)c1ccc(Cl)cc1
- GI50 (OVCAR-8 ovarian): 19.1 µM
- TGI (OVCAR-8 ovarian): 35.3 µM
- GI50 (SF-539 CNS): 5.93 µM
- TGI (SF-539 CNS): 19.1 µM
- GI50 (LOX IMVI melanoma): 2.4 µM
- TGI (LOX IMVI melanoma): 5.3 µM
- GI50 (786-0 renal): 14.7 µM
- TGI (786-0 renal): 28.6 µM
- GI50 (COLO 205 colon): 6.83 µM
- TGI (COLO 205 colon): 23.1 µM
- GI50 (MDA-MB-435): 4.67 µM
- TGI (MDA-MB-435): 20.4 µM
- GI50 (HOP-92 NSCLC): 7.3 µM
- TGI (HOP-92 NSCLC): 21 µM
- GI50 (NCI/ADR-RES ovarian): 16.2 µM
- TGI (NCI/ADR-RES ovarian): 30.9 µM
- GI50 (HCT-15 colon): 3.57 µM
- TGI (HCT-15 colon): 14.4 µM
- GI50 (HL-60(TB) leukemia): 6.77 µM
- TGI (HL-60(TB) leukemia): > 100 µM
- GI50 (NCI-H23 lung): 13 µM
- TGI (NCI-H23 lung): 31.4 µM
- GI50 (SNB-75 CNS): 13.5 µM
- TGI (SNB-75 CNS): 27.9 µM
- GI50 (UACC-62 melanoma): 11.4 µM
- TGI (UACC-62 melanoma): 23.8 µM
- GI50 (SN12C renal): 7.45 µM
- TGI (SN12C renal): 20.7 µM
- GI50 (MCF7 breast): 3.58 µM
- TGI (MCF7 breast): 19.4 µM
- GI50 (A498 renal): 16.3 µM
- TGI (A498 renal): 30.7 µM
- GI50 (OVCAR-3 ovarian): 3.75 µM
- TGI (OVCAR-3 ovarian): 13.3 µM
- GI50 (SK-MEL-2 melanoma): 20.2 µM
- TGI (SK-MEL-2 melanoma): 36.4 µM
- GI50 (NCI-H522 lung): 8.3 µM
- TGI (NCI-H522 lung): 22.9 µM
- GI50 (M14 melanoma): 8.42 µM
- TGI (M14 melanoma): 25 µM
- GI50 (PC-3 prostate): 6.94 µM
- TGI (PC-3 prostate): 26.2 µM
- GI50 (OVCAR-5 ovarian): 19.6 µM
- TGI (OVCAR-5 ovarian): 36.4 µM
- GI50 (BT-549 breast): 11.8 µM
- TGI (BT-549 breast): 25.8 µM
- GI50 (CAKI-1 renal): 5.48 µM
- TGI (CAKI-1 renal): 20.9 µM
- GI50 (NCI-H460 lung): 19.4 µM
- TGI (NCI-H460 lung): 42.4 µM
- GI50 (HCT-116 colon): 7.11 µM
- TGI (HCT-116 colon): 23.7 µM
- GI50 (HOP-62 NSCLC): 20.2 µM
- TGI (HOP-62 NSCLC): 37.9 µM
- GI50 (A549 NSCLC): 19.4 µM
- TGI (A549 NSCLC): 49.9 µM
- GI50 (MOLT-4 leukemia): 3.14 µM
- TGI (MOLT-4 leukemia): > 100 µM
- GI50 (RPMI-8226 leukemia): 2.08 µM
- TGI (RPMI-8226 leukemia): 5.66 µM
- GI50 (K-562 leukemia): 74.6 µM
- TGI (K-562 leukemia): > 100 µM
- GI50 (HT29 colon): 5.3 µM
- TGI (HT29 colon): 58.4 µM
- GI50 (SR leukemia): 5.54 µM
- TGI (SR leukemia): > 100 µM
- GI50 (CCRF-CEM leukemia): 2.59 µM
- TGI (CCRF-CEM leukemia): 10.7 µM
- GI50 (SNB-19 CNS): 15.9 µM
- TGI (SNB-19 CNS): 30.1 µM
- GI50 (EKVX NSCLC): 17.4 µM
- TGI (EKVX NSCLC): 38.8 µM
- GI50 (DU-145 prostate): 5.22 µM
- TGI (DU-145 prostate): 16.7 µM
- GI50 (SF-295 CNS): 14.6 µM
- TGI (SF-295 CNS): 31.9 µM
- GI50 (SF-268 CNS): 5.67 µM
- TGI (SF-268 CNS): 18.4 µM
- GI50 (HCC-2998 colon): 8.54 µM
- TGI (HCC-2998 colon): 22.6 µM
- GI50 (UO-31 renal): 2.61 µM
- TGI (UO-31 renal): 8.85 µM
- GI50 (IGROV1 ovarian): 3.88 µM
- TGI (IGROV1 ovarian): 16.2 µM
- GI50 (ACHN renal): 5.68 µM
- TGI (ACHN renal): 17.4 µM
- GI50 (UACC-257 melanoma): 18.2 µM
- TGI (UACC-257 melanoma): 34.6 µM
- GI50 (TK-10 renal): 5.67 µM
- TGI (TK-10 renal): 19.7 µM
- GI50 (SK-MEL-28 melanoma): 12.7 µM
- TGI (SK-MEL-28 melanoma): 27 µM
- GI50 (RXF 393 renal): 12.8 µM
- TGI (RXF 393 renal): 28.6 µM
- GI50 (SW-620 colon): 4.49 µM
- TGI (SW-620 colon): 16.7 µM
- GI50 (OVCAR-4 ovarian): 13.7 µM
- TGI (OVCAR-4 ovarian): 29.3 µM
- GI50 (SK-OV-3 ovarian): 18.3 µM
- TGI (SK-OV-3 ovarian): 32.8 µM
- GI50 (KM12 colon): 4.24 µM
- TGI (KM12 colon): 15.3 µM
- GI50 (HS 578T breast): 13.8 µM
- TGI (HS 578T breast): > 100 µM
- GI50 (U251 CNS): 4.38 µM
- TGI (U251 CNS): 14.9 µM
- GI50 (NCI-H226 lung): 16.7 µM
- TGI (NCI-H226 lung): 39.4 µM
- GI50 (T-47D breast): 6.24 µM
- TGI (T-47D breast): 25.3 µM
- GI50 (MALME-3M melanoma): 11.8 µM
- TGI (MALME-3M melanoma): 28.6 µM
- GI50 (MDA-MB-231 breast): 6.95 µM
- TGI (MDA-MB-231 breast): 20.4 µM
